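Exposure lasted 48 hours, with cells grown in 96-well plates and compounds tested at five concentrations. At the GI50, growth is halved.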 Calls of active or inactive are those of the source. Cut-off read from the data, not from the text of the source: active = GI50 up to about 1.1 µM and inactive = higher.
Experiments:
Experiment in all cases: NCI tumour cell line growth inhibition, 48 h
A498 = system: A498
DU-145 = system: DU-145
EKVX = system: EKVX
HCT-116 = system: HCT-116
M14 = system: M14
MDA-N = system: MDA-N
MOLT-4 = system: MOLT-4
OVCAR-3 = system: OVCAR-3
OVCAR-4 = system: OVCAR-4
PC-3 = system: PC-3
RPMI-8226 = system: RPMI-8226
SF-539 = system: SF-539
SR = system: SR
TK-10 = system: TK-10
UACC-257 = system: UACC-257
UACC-62 = system: UACC-62
UO-31 = system: UO-31
HL-60 = system: HL-60
NCI-H522 = system: NCI-H522

For CCCCCCCCCCCCOCC1(COCCCCCCCCCCCC)COC(c2ccc(N)cc2)OC1, the GI50 (A498) was > 100 µM (inactive), the GI50 (DU-145) was > 100 µM (inactive) and the GI50 (EKVX) was > 100 µM (inactive). For the same compound, the GI50 (HCT-116) was > 100 µM (inactive), the GI50 (M14) was > 100 µM (inactive) and the GI50 (MDA-N) was > 100 µM (inactive). For the same compound, the GI50 (MOLT-4) was > 100 µM (inactive), the GI50 (OVCAR-3) was > 100 µM (inactive) and the GI50 (OVCAR-4) was > 100 µM (inactive). The GI50 (PC-3) was > 100 µM (inactive), the GI50 (RPMI-8226) was > 100 µM (inactive) and the GI50 (SF-539) was > 100 µM (inactive). For the same compound, the GI50 (SR) was > 100 µM (inactive), the GI50 (TK-10) was > 100 µM (inactive) and the GI50 (UACC-257) was > 100 µM (inactive). The GI50 (UACC-62) was > 100 µM (inactive) and the GI50 (UO-31) was > 100 µM (inactive).
Cc1ccc(NC(=O)CC2C(=O)Nc3ccccc3[S+]2[O-])c(C)c1 (stereo not given) was tested, and the GI50 (A498) was 18.9 µM (inactive), the GI50 (EKVX) was > 61.7 µM (inactive) and the GI50 (HCT-116) was 8.69 µM (inactive). The GI50 (HL-60) was 2.86 µM (inactive), the GI50 (M14) was 6.78 µM (inactive) and the GI50 (MOLT-4) was 6.28 µM (inactive). The GI50 (NCI-H522) was 6.89 µM (inactive), the GI50 (OVCAR-3) was 9.51 µM (inactive) and the GI50 (OVCAR-4) was 17.3 µM (inactive). The GI50 (RPMI-8226) was 12.1 µM (inactive), the GI50 (SF-539) was 12.9 µM (inactive) and the GI50 (SR) was 2.9 µM (inactive). The GI50 (TK-10) was 22.4 µM (inactive), the GI50 (UACC-257) was 50.8 µM (inactive) and the GI50 (UACC-62) was 7.23 µM (inactive). For the same compound, the GI50 (UO-31) was 19.3 µM (inactive).
In the case of COC(=O)C1C=CCON2CCc3c(n(C)c4ccccc34)C12 (stereo not given), the GI50 (A498) is reported as 46.6 µM (inactive), the GI50 (EKVX) is reported as 92.3 µM (inactive) and the GI50 (HCT-116) is reported as > 100 µM (inactive). For the same compound, the GI50 (HL-60) was > 100 µM (inactive), the GI50 (M14) was > 100 µM (inactive) and the GI50 (MOLT-4) was > 100 µM (inactive). The GI50 (NCI-H522) was > 100 µM (inactive), the GI50 (OVCAR-3) was > 100 µM (inactive) and the GI50 (OVCAR-4) was > 100 µM (inactive). The GI50 (RPMI-8226) was > 100 µM (inactive), the GI50 (SF-539) was > 100 µM (inactive) and the GI50 (SR) was > 100 µM (inactive). The GI50 (TK-10) was > 100 µM (inactive) and the GI50 (UO-31) was > 100 µM (inactive).
For CC1C2Cc3ccc(O)cc3C1(C)CCN2C (stereo not given), the GI50 (A498) was > 100 µM (inactive), the GI50 (DU-145) was > 100 µM (inactive) and the GI50 (EKVX) was > 100 µM (inactive). The GI50 (HCT-116) was > 100 µM (inactive), the GI50 (HL-60) was > 100 µM (inactive) and the GI50 (M14) was > 100 µM (inactive). For the same compound, the GI50 (MDA-N) was > 100 µM (inactive), the GI50 (MOLT-4) was > 100 µM (inactive) and the GI50 (NCI-H522) was > 100 µM (inactive). The GI50 (OVCAR-3) was > 100 µM (inactive), the GI50 (OVCAR-4) was > 100 µM (inactive) and the GI50 (PC-3) was > 100 µM (inactive). For the same compound, the GI50 (RPMI-8226) was > 100 µM (inactive), the GI50 (SF-539) was > 100 µM (inactive) and the GI50 (SR) was > 100 µM (inactive). The GI50 (TK-10) was > 100 µM (inactive), the GI50 (UACC-257) was > 100 µM (inactive) and the GI50 (UACC-62) was > 100 µM (inactive). For the same compound, the GI50 (UO-31) was > 100 µM (inactive).
COc1ccc(-c2cc(=O)c3c(O)c(O)c(OC)cc3o2)cc1O was tested, and the GI50 (A498) was > 100 µM (inactive), the GI50 (EKVX) was > 100 µM (inactive) and the GI50 (HCT-116) was > 100 µM (inactive). The GI50 (HL-60) was > 100 µM (inactive), the GI50 (M14) was > 100 µM (inactive) and the GI50 (MOLT-4) was > 100 µM (inactive). For the same compound, the GI50 (NCI-H522) was 53.5 µM (inactive), the GI50 (OVCAR-3) was > 100 µM (inactive) and the GI50 (OVCAR-4) was > 100 µM (inactive). For the same compound, the GI50 (RPMI-8226) was > 100 µM (inactive), the GI50 (SF-539) was > 100 µM (inactive) and the GI50 (SR) was 44.5 µM (inactive). For the same compound, the GI50 (TK-10) was > 100 µM (inactive), the GI50 (UACC-257) was > 100 µM (inactive) and the GI50 (UACC-62) was > 100 µM (inactive). For the same compound, the GI50 (UO-31) was > 100 µM (inactive).
In the case of CC1=C2C(=CC(C)(C)[C@@H]2O)C(=O)[C@](C)(O)C12CC2 [ILLUDIN M], the GI50 (A498) is reported as 0.0206 µM (active), the GI50 (EKVX) is reported as 0.0773 µM (active) and the GI50 (HCT-116) is reported as 0.01 µM (active). The GI50 (HL-60) was 0.0156 µM (active), the GI50 (M14) was 0.0156 µM (active) and the GI50 (MDA-N) was 0.0171 µM (active). The GI50 (MOLT-4) was 0.01 µM (active), the GI50 (NCI-H522) was 0.0115 µM (active) and the GI50 (OVCAR-3) was < 0.0143 µM (active). For the same compound, the GI50 (OVCAR-4) was < 0.0112 µM (active), the GI50 (PC-3) was 0.0138 µM (active) and the GI50 (RPMI-8226) was 0.839 µM (active). For the same compound, the GI50 (SF-539) was 0.0184 µM (active), the GI50 (SR) was 0.01 µM (active) and the GI50 (TK-10) was < 0.0182 µM (active). The GI50 (UACC-257) was 0.08 µM (active), the GI50 (UACC-62) was 0.0208 µM (active) and the GI50 (UO-31) was 0.0246 µM (active).

Source: ChEMBL document CHEMBL1201862, “PubChem BioAssay data set” (2004)
